For data set [1], the system named is systemic blood pressure and heart rate. In words: Blood pressure profile in chronically instrumented (telemetered) rats. In kind it is in vivo, rat. The procedure: A single oral gavage dose was administered (volume: 5 mL/kg). […] Following the completion of the Latin square, two additional dose concentrations were evaluated (0.6 and 10 mg/kg, n=3 per group).
All IV doses were administered in manually restrained rats via tail vena-puncture. It should be noted that vehicle controls were also administered.
A 24-hour recording was performed prior to dosing (vehicle alone) and after each oral dose.

A short description of data set [2]: Polymorph stability (slurry and heating, XRPD). As to conditions: heating to 115° C. In kind it is physicochemical. The method, then: Crystalline Form II of Compound (I) was characterized using X-ray powder diffraction (XRPD) (FIG. 1A). The XRPD pattern corresponds to an anhydrous form denoted as Form II, which is highly crystalline. In addition to Form II, Compound (I) can exist as another anhydrous polymorph, denoted as Form I. The XRPD patterns of these phases are shown in FIG. 1B. A slurry experiment was performed at room temperature by adding approximately equal proportions of the two anhydrous phases to methyl-tert-butyl ether.

Data set [3] has as its system Sprague-Dawley rats. The data set is described as follows: Acute depression model, forced swim test. In kind it is in vivo, rat. The conditions noted are these: 20 mg/kg vs vehicle. The method, then:
Young, adult, male Sprague-Dawley rats were randomly assigned across the treatment groups and were administered vehicle (0.5% MC/0.02% SLS), the reference compound desipramine (20 mg/kg; a tricyclic antidepressant; Sigma, Lot #078K1326) dissolved in sterile water, or crystalline Form II of Compound (I) (0.1, 0.3, 1, 3, 10, and 30 mg/kg) suspended in 0.5% MC/0.02% SLS, twice on Day 1 (after habituation; ˜24 h prior to test, and prior to dark cycle) and once on Day 2 (30 min pre-test for desipramine and 45 min pre-test for Form II and vehicle).
Each Forced Swim chamber was constructed of clear acrylic (height, 40 cm; diameter, 20.3 cm). Rats were subjected to a pre-dose swim test of one 15-min session in cylinders containing water at 23° C.±1° C., followed approximately 24 h later by the experimental 5-min session. The water level was 16 cm deep during habituation and 30 cm deep during the test. Immobility, climbing, and swimming behaviors were recorded every 5 s for a total of 60 counts per subject. When an animal was unable to maintain a posture with its nose above water, it was immediately removed from the water and eliminated from the study. Blood was collected at the completion of swim test procedures and plasma was analyzed for Form II concentrations.

In data set [4] the test system is Sprague-Dawley rats. In words: Rat forced swim test 24 hours after administration. In kind it is in vivo. The conditions noted are these: 10 mg/kg, i.p., 24 hours before test, p<0.05. The method, then:
This study aimed to evaluate the duration of the antidepressant-like effects of Form II of Compound (I) using the forced swim test in male, Sprague-Dawley rats. Clinically effective antidepressant compounds reduce immobility time and increase swimming in rodents subjected to this test. Rats received Compound (I) (10 mg/kg, p.o.) or ketamine (10 mg/kg, i.p.) and 24 hours later were subjected to testing. […] The data represent mean±SEM.

Data set [5] in a line: Repeated once-daily oral dosing with food (Days 1-7) in healthy subjects, PK and PD. The class given is in vivo, human. The conditions noted are these: oral doses up to 20 mg. The method, then: A randomized, double-blind, placebo-controlled, parallel-dose group in-patient study is conducted to investigate the pharmacodynamic (PD) effects of crystalline Form II of Compound (I) in healthy subjects.
The study is designed as a three-part, sequential study. The sequential nature of the study ensures that a range of doses are investigated first in a young, healthy population (Part 1) before proceeding to higher doses in the healthy population and the comparator populations (intermediate age and elderly) (Parts 2 and 3). For the purposes of this study, “young” refers to a subject who is 18 to 45 years of age, “intermediate age” refers to a subject who is 46 to 64 years of age, and “elderly” refers to a subject who is 65 years of age or older.
After a screening period of up to 21 days (Days −23 to −3), 16 healthy, young male and female subjects are randomly assigned to a dose group as shown in Table 9.
Each parallel dose group is balanced for gender (approximately equal number of males and females). The randomized subjects are domiciled from Day −1 through Day 8. On Day −1, the subjects receive placebo tablets in the fed state and undergo ambulatory blood pressure monitoring (ABPM) and safety assessments to establish time-matched baselines. On Days 1-7, the subjects receive the study drug in the fed state and undergo safety, pharmacokinetic (PK) and pharmacodynamics (PD) assessments. On Days 8-11, follow-up PK and safety assessments are performed.
Safety assessments include Clinician-Administered Dissociative States Scale (CADSS), Columbia-Suicide Severity Rating Scale (C-SSRS), concomitant medication, adverse event (AE) and vital sign assessments. In PK assessments, blood samples are taken and analyzed to determine PK parameters such as Cmax, Tmax, AUC0-24, and t1/2. PD assessments include ABPM, plasma brain-derived neurotrophic factor (BDNF) measurements, and Profile of Mood States (POMS) assessments.
After a screening period of up to 21 days (Days −23 to −3), 16 subjects (8 healthy, young male and female subjects, and 8 healthy, intermediate age male and female subjects) are randomly assigned to a dose group as shown in Table 10.
After a screening period of up to 21 days (Days −23 to −3), 16 subjects (8 healthy, young male and female subjects, and 8 healthy, elderly male and female subjects) are randomly assigned to a dose group as shown in Table 11.

For data set [6] the following is noted: patients with TRMDD; Ibrahim et al. 2012; cited from earlier work.
[7] abbreviates: 1 mg/kg IV bolus, blocker alone.

In data set [1] (setting [7]), `CC(C)NCC(O)COc1ccc(CC(N)=O)cc1` (stereo not drawn) [atenolol, reference compound] registered an HR change of −87±11 bpm and an MAP change of −3.3±3.1 mmHg.

For the compound `Cc1ccc(COC(=O)N2CC[C@H](CNc3ncccn3)[C@H](F)C2)cc1` [Form I, 4-methylbenzyl (3S, 4R)-3-fluoro-4-[(pyrimidin-2-ylamino)methyl] piperidine-1-carboxylate], in data set [2], the “phase change on heating (XRPD of recovered solids)” value was “phase conversion to Form II”.

Turning to `CNCCCN1c2ccccc2CCc2ccccc21` [Desipramine, reference compound], in data set [3], the swimming behavior entry is “no change”. The immobility result in data set [3] (P<0.001) is “significantly decreased”. For the same compound, the climbing behavior result in data set [3] (P<0.01) was “significantly increased”.

`CNC1(c2ccccc2Cl)CCCCC1=O` (stereo not drawn) [ketamine, reference compound]: in data set [4], the immobility entry was “reduced immobility” and the swim time result was “increased swim time significantly”.

In the case of `Cc1ccc(COC(=O)N2CC[C@H](CNc3ncccn3)[C@H](F)C2)cc1` [Compound (I), 4-methylbenzyl (3S, 4R)-3-fluoro-4-[(pyrimidin-2-ylamino)methyl] piperidine-1-carboxylate], in data set [5], the “heart rates in human studies” value is “have not been observed to increase to any significant degree”; the “primary hemodynamic observation in human studies” value is “transient increase in systolic and diastolic blood pressure”. In data set [6], the “HAM-D17 and Beck Depression Inventory (BDI)” value is listed as “showed antidepressant effects”. The heart rate result in data set [1] (0.3 and 0.6 mg/kg oral) is reported as “modestly increased heart rate”. In addition, in data set [1] (between 1 and 10 mg/kg oral), the heart rate result is recorded as “increased HR dose proportionally”. In addition, the “magnitude of change in hemodynamics compared with MK-801 (0.2 mg/kg IV)” value in data set [1] (oral 0.3-10 mg/kg) was “significantly less than that of MK-801”. The arterial blood pressure entry in data set [1] (oral, dose-dependent between 0.3-1 mg/kg, plateaued at 1-10 mg/kg) is listed as “increased arterial blood pressure transiently”.

The values are drawn from patent US12410153B2, “Compounds, compositions and methods” (Avalo Therapeutics, Inc., priority 2014, dated 2025).
